# Data published in US8957192B2, “Human cytotoxic T-lymphocyte epitope and its agonist epitope from the non-variable number of tandem repeat sequence of MUC-1” (The United States of America, as represented by the …, priority 2003, dated 2015).
# Several values for one entry are separate records, joined by “and”; a condition that tells them apart may be missing. Identical values can stand only once.
# Key:
# HLA-A2 molecule [1] = molecular target: HLA-A2 molecule (Homo sapiens, UniProt P04439, I166T/I218V/L300P/L318F/N151K/N90K/P208A/P217A/Q86G/Q94H/R138H/R169H/T345S); assay: T2 cell binding assay: peptide binding to HLA-A2 by flow cytometry
# Method: In this assay, increased stability (accumulation) of HLA-A2 molecules on the surface of T2 cells as a consequence of peptide binding is measured by increased binding of antibody directed against HLA-A2 molecule. Briefly, 1×10^6 cells in serum-free Iscove's modified Dulbecco's complete medium were incubated with peptides at a concentration of 50 μg/ml in 24-well culture plates at 37° C. in 5% CO2. Flow cytometry for peptide binding was performed using T2 cells and single-color analysis. After cells were washed three times in DPBS, as described above, they were incubated for 1 h with a 1:100 dilution of HLA-A2-specific MAb (One Lambda, Inc.) per 10^6 cells. UPC-10 (Cappel/Organon Teknika) was used as isotype control. The cells were then washed three times and incubated with 1:100 dilution of FITC-labeled anti-mouse IgG (BD Biosciences). Analysis was conducted with the FACScan, as described above. Cells were maintained on ice during all cell preparation and staining.
# The primary amino acid sequence of human MUC-1 was analyzed for consensus motifs for novel HLA-A2 binding peptides. […] The CEA CAP1-6D peptide and a NCA peptide were used as a positive and negative control, respectively.
# T-1191-MUC-1 cells [2] = assay: IFN-γ production (ELISA) by T-1191-MUC-1 cells stimulated with peptide-pulsed autologous B cells; assay type: cell-based, human; details: for Production of IFN-γ, with peptide: T-1191-MUC-1 at IVS-3, autologous EBV-B cells pulsed 25 μg/ml, effector-to-APC 1:3, 24 h
# Method: (§1) Supernatants of T cells exposed for 24 h to peptide-pulsed autologous EBV-transformed B cells, in IL-2-free medium at various peptide concentrations, were screened for secretion of IFN-γ using an ELISA kit (R & D Systems, Minneapolis, Minn.). The results were expressed in pg/ml. A CBA system (BD PharMingen, San Diego, Calif.) was also used to determine the secretion of multiple cytokines by specific T cells. The CBA system uses the fluorescence detection by flow cytometry to measure soluble analyses in a particles-based immunoassay. The BD human Th1/Th2 cytokine CBA Kit was used to measure IL-2, IL-4, IL-5, IL-10, TNF-α protein levels in a single sample. The cytokine capture beads were mixed with PE-conjugated detection antibodies and then incubated with recombinant cytokine standards or test samples to form sandwich complexes. The sample results were generated in graphic and tabular format, using BD PharMingen CBA analysis software. The results were expressed in pg/ml.
# The specificity of the MUC-1-specific T cells generated (designated T-1191-MUC-1) was analyzed after IVS cycle 3 (see Materials and Methods) for their ability to release IFN-γ after stimulation with autologous B cells pulsed with each of the MUC-1 peptides listed in Table 1.
# peptide-HLA-A2 complexes = peptide-HLA-A2 complexes (Homo sapiens, UniProt P04439, D140Y/D185E/D98H/E176V/E277Q/G131W/G231S/I119V/I121R/I166T/I218V/L300P/L318F/N151K/N90K/P208A/P217A/Q86G/Q94H/R138H/R169H/T345S); assay: Stability of peptide-HLA-A2 complex on T2 cells (brefeldin-A); assay type: binding; details: 50 μg/ml overnight, 8-hour observation
# Method: FIG. 2 is a graph showing the comparison of the stability of the complex of the P-92, P-93L or P-93I peptide with HLA-A2. T2 cells were incubated overnight with P-92 (open square), P-93L (closed square) or P-93I (closed triangle) peptide at a concentration of 50 μg/ml and then washed free of unbound peptide and incubated with brefeldin-A to block delivery of new class I molecules to the cell surface. At the indicated times, cells were stained for the presence of surface peptide-HLA-A2 complexes. Results are expressed in relative percentage of binding compared with 100% at time 0.
# The stability of the peptide-MHC complex for peptides P-92 (native), P-93L and P-93I, was examined. Peptides were incubated with T2 cells overnight, the unbound peptides were washed off, and then incubated with brefeldin-A to block delivery of new class I molecules to the cell surface; at various time points cells were analyzed for the presence of peptide-HLA-A2 complexes.
# HLA-A2 molecule [3] = molecular target: HLA-A2 molecule (Homo sapiens, UniProt P04439, D140Y/D185E/D98H/E176V/E277Q/G131W/G231S/I119V/I121R/I166T/I218V/L300P/L318F/N151K/N90K/P208A/P217A/Q86G/Q94H/R138H/R169H/T345S); assay: T2 cell binding assay: peptide binding to HLA-A2 by flow cytometry; details: peptides 0-50 μg/ml; MFI
# [4] = system: T-cell lines T-55, T-49, T-41; assay: IFN-γ production by T-cell lines from cancer patients established with rF-CEA/MUC/TRICOM-infected DCs; assay type: cell-based, human; details: autologous DCs as APC; peptides 25 μg/ml; effector-to-APC 10:1; 24 h
# [5] = system: MUC-1-specific T-cell lines T-23-P-92, T-23-P-93L, T-18-P-92, T-18-P-93L; assay: IFN-γ production by T-cell lines from two pancreatic cancer subjects stimulated with peptide-pulsed DCs; assay type: cell-based, human; details: IVS-4; allogeneic DCs pulsed 25 μg/ml; effector-to-APC 10:1; 24 h
# [6] = system: CEA-specific T cells (V8T); assay type: cell-based, human; details: 24 h
# [7] = system: MUC-1-specific T cells (T-1191-P93L); assay type: cell-based, human; details: 24 h
# [8] = system: T-cell lines T-rV, T-rF, T-rF(CEA), T-rF(MUC); assay type: cell-based, human; details: 24 h
# T-1191-MUC-1 cells [9] = assay: CBA assay for production of cytokines by MUC-1 peptide-stimulated T cells; assay type: cell-based, human; details: peptide 25 μg/ml; effector-to-APC 1:3; 24 h
# Method: as §1
# The ability of the P-93L and P-93I agonist peptides at various peptide concentrations, to activate the T-1191-MUC-1 cells, was compared. […] The P-93L agonist peptide was thus chosen for further study. The cytokine profile of T-1191-MUC-1 cells stimulated with APCs pulsed with either the P-92 or the P-93L peptide was then analyzed. A CBA assay was used for the analysis. […] No TNF-α could be detected in the supernatants at the 24-h time point.
# [10] = Table 1, T2 cells, peptide 50 μg/ml
sequence,measurement,setting,value
ALWGQDVTSL [L-93/L-101],T2 binding,"HLA-A2 molecule [1]; Table 4, P-92 analogues",736 relative fluorescence values
REGTINVHDV [Peptide P-1108],T2 binding,HLA-A2 molecule [1]; [10],482 relative fluorescence
same,"Production of IFN-γ, with peptide",T-1191-MUC-1 cells [2],<52.3 pg/mL
LAFREGTINV [Peptide P-1105],T2 binding,HLA-A2 molecule [1]; [10],461 relative fluorescence
same,"Production of IFN-γ, with peptide",T-1191-MUC-1 cells [2],<52.3 pg/mL
WGQDVTSVPV [Peptide P-94],T2 binding,HLA-A2 molecule [1]; [10],591 relative fluorescence
same,"Production of IFN-γ, with peptide",T-1191-MUC-1 cells [2],323.6 pg/mL
ALAIVYLIAL [Peptide P-1172],T2 binding,HLA-A2 molecule [1]; [10],372 relative fluorescence
same,"Production of IFN-γ, with peptide",T-1191-MUC-1 cells [2],<52.3 pg/mL
LIALAVCQC (YLIALAVCQC) [Peptide P-1177],T2 binding,HLA-A2 molecule [1]; [10],338 relative fluorescence
same,"Production of IFN-γ, with peptide",T-1191-MUC-1 cells [2],<52.3 pg/mL
AIWGQDVTSV [Peptide P-93I],T2 binding,"HLA-A2 molecule [1]; Table 4, P-92 analogues",823 relative fluorescence values
same,stability of the peptide-HLA-A2 complex (FIG. 2),peptide-HLA-A2 complexes,more stable than P-92-HLA-A2 complexes
same,binding to HLA-A2 at various peptide concentrations (FIG. 1),HLA-A2 molecule [3],higher levels than P-92 at all peptide concentrations
GTQSPFFLLL [Peptide P-4],T2 binding,HLA-A2 molecule [1]; [10],467 relative fluorescence
same,"Production of IFN-γ, with peptide",T-1191-MUC-1 cells [2],260.0 pg/mL
ALLVLVCVLV [Peptide P-1162],T2 binding,HLA-A2 molecule [1]; [10],431 relative fluorescence
same,"Production of IFN-γ, with peptide",T-1191-MUC-1 cells [2],<52.3 pg/mL
VLVALAIVYL [Peptide P-1169],T2 binding,HLA-A2 molecule [1]; [10],369 relative fluorescence
same,"Production of IFN-γ, with peptide",T-1191-MUC-1 cells [2],<52.3 pg/mL
AIWGQDVTSL [I-93/L-101],T2 binding,"HLA-A2 molecule [1]; Table 4, P-92 analogues",280 relative fluorescence values
LQRDISEMFL [Peptide P-1069],T2 binding,HLA-A2 molecule [1]; [10],433 relative fluorescence
same,"Production of IFN-γ, with peptide",T-1191-MUC-1 cells [2],288.0 pg/mL
"VISNDVCAQV [PSA peptide, prostate-specific antigen (PSA) peptide, control]",IFN-γ secretion by T-41,[4],<15.6 pg/mL
same,IFN-γ secretion by T-49,[4],<15.6 pg/mL
same,IFN-γ secretion by T-55,[4],<15.6 pg/mL
AMWGQDVTSV [Peptide M-93],T2 binding,"HLA-A2 molecule [1]; Table 4, P-92 analogues",723 relative fluorescence values
TISDVSVSDV [Peptide P-1135],T2 binding,HLA-A2 molecule [1]; [10],422 relative fluorescence
same,"Production of IFN-γ, with peptide",T-1191-MUC-1 cells [2],347.2 pg/mL
AMWGQDVTSL [M-93/L-101],T2 binding,"HLA-A2 molecule [1]; Table 4, P-92 analogues",325 relative fluorescence values
"YLSGADLNL [CAP1-6D, reference compound]",IFN-γ produced by T-18-P-92,[5],<26 pg
same,IFN-γ produced by T-18-P-93L,[5],<26 pg
same,IFN-γ produced by T-23-P-92,[5],<26 pg
same,IFN-γ produced by T-23-P-93L,[5],<26 pg
same,"IFN-γ, CEA-specific CTL",[6],772 pg/mL and 820 pg/mL
same,"IFN-γ, MUC-1-specific CTL",[7],<15 pg/mL
same,Production of IFN-γ by T-rF,[8],550.0 pg/mL
same,Production of IFN-γ by T-rF(CEA),[8],729.2 pg/mL
same,Production of IFN-γ by T-rF(MUC),[8],<15.6 pg/mL
same,Production of IFN-γ by T-rV,[8],976.3 pg/mL
same,IFN-γ secretion by T-41,[4],933.4 pg/mL
same,IFN-γ secretion by T-49,[4],974.2 pg/mL
same,IFN-γ secretion by T-55,[4],">1,000 pg/ml"
"YRPGENLNL [NCA, NCA peptide used as a negative control, reference compound]",T2 binding,HLA-A2 molecule [1]; [10],365 relative fluorescence
TLASHSTKTD [Peptide P-1104],T2 binding,HLA-A2 molecule [1]; [10],442 relative fluorescence
same,"Production of IFN-γ, with peptide",T-1191-MUC-1 cells [2],305.6 pg/mL
"ALWGQDVTSV [Peptide P-93L, MUC-1 agonist peptide]",T2 binding,"HLA-A2 molecule [1]; Table 4, P-92 analogues",821 relative fluorescence values
same,IFN-γ production by T-1191-MUC-1 cells at various peptide concentrations (FIG. 3),T-1191-MUC-1 cells [2]; peptides 0-6.25 μg/ml,greatest level of IFN-γ production
same,IFN-γ,T-1191-MUC-1 cells [9],650 pg/ml/10^6 cell/ml
same,IL-2,T-1191-MUC-1 cells [9],366.9 pg/ml/10^6 cell/ml
same,IL-4,T-1191-MUC-1 cells [9],<20 pg/ml/10^6 cell/ml
same,IL-5,T-1191-MUC-1 cells [9],140.9 pg/ml/10^6 cell/ml
same,IL-10,T-1191-MUC-1 cells [9],<20 pg/ml/10^6 cell/ml
same,TNF-α,T-1191-MUC-1 cells [9],<20 pg/ml/10^6 cell/ml
same,stability of the peptide-HLA-A2 complex (FIG. 2),peptide-HLA-A2 complexes,more stable than P-92-HLA-A2 complexes
same,IFN-γ produced by T-18-P-92,[5],366.6 pg
same,IFN-γ produced by T-18-P-93L,[5],524.1 pg
same,IFN-γ produced by T-23-P-92,[5],644.5 pg
same,IFN-γ produced by T-23-P-93L,[5],973.0 pg
same,"IFN-γ, CEA-specific CTL",[6],<15 pg/mL
same,"IFN-γ, MUC-1-specific CTL",[7],458 pg/mL and 550 pg/mL
same,Production of IFN-γ by T-rF,[8],446.0 pg/mL
same,Production of IFN-γ by T-rF(CEA),[8],<15.6 pg/mL
same,Production of IFN-γ by T-rF(MUC),[8],626.8 pg/mL
same,Production of IFN-γ by T-rV,[8],514.0 pg/mL
same,IFN-γ secretion by T-41,[4],745.0 pg/mL
same,IFN-γ secretion by T-49,[4],819.0 pg/mL
same,IFN-γ secretion by T-55,[4],985.8 pg/mL
same,binding to HLA-A2 at various peptide concentrations (FIG. 1),HLA-A2 molecule [3],higher levels than P-92 at all peptide concentrations
ATWGQDVTSV [Peptide P-92],T2 binding,HLA-A2 molecule [1]; [10],740 relative fluorescence
same,T2 binding,"HLA-A2 molecule [1]; Table 4, P-92 analogues",510 relative fluorescence values
same,"Production of IFN-γ, with peptide",T-1191-MUC-1 cells [2],380.8 pg/mL
same,IFN-γ,T-1191-MUC-1 cells [9],266 pg/ml/10^6 cell/ml
same,IL-2,T-1191-MUC-1 cells [9],58.8 pg/ml/10^6 cell/ml
same,IL-4,T-1191-MUC-1 cells [9],<20 pg/ml/10^6 cell/ml
same,IL-5,T-1191-MUC-1 cells [9],<20 pg/ml/10^6 cell/ml
same,IL-10,T-1191-MUC-1 cells [9],<20 pg/ml/10^6 cell/ml
same,TNF-α,T-1191-MUC-1 cells [9],<20 pg/ml/10^6 cell/ml
same,IFN-γ produced by T-18-P-92,[5],168.0 pg
same,IFN-γ produced by T-18-P-93L,[5],378.2 pg
same,IFN-γ produced by T-23-P-92,[5],299.8 pg
same,IFN-γ produced by T-23-P-93L,[5],400.5 pg
